According to US9340559B2, “Proteasome inhibitor delanzomib for use in the treatment of lupus” (Cephalon, Inc., priority 2011, dated 2016):

How the values were obtained:
[1] = tested on: MRL/lpr mice; assay: Survival / mortality, MRL/lpr mice (Example 1); settings: G6: 1.5 mg/kg ip, 3× wk; vehicle 92
Method: Six week old lupus-prone, female, MRL/lpr (Jackson Labs, #000485) and non-lupus prone control MRL/MpJ (Jackson Labs, #000486) mice are obtained from Jackson Laboratories (Bar Harbor, Me.) at 6-weeks of age. All mice are maintained on a 24 hour light/dark cycle, with food and water available ad libitum. All experimental animal procedures are approved by and in accordance to the regulations of the Institutional Animal Care and Use Committee (IACUC) of Cephalon, Inc; approved IACUC protocol #03-040 and #03-03-041.
Due to this impaired tolerance mechanism, a percentage of all T and B cells that enter the periphery have a high likelihood of responding to self protein/tissues and thus initiate autoimmunity early in life. The MRL/lpr model mice develop several chronic inflammatory disease-like symptoms that are characteristic of early and late lupus including the generation of anti-nuclear antibodies, arthritis, dermatological manifestations, immunocomplex-mediated glomerulonephritis leading to proteinuria and eventual death. Lesser characterized phenomenon are CNS and cardiac manifestations, both of which are more common in humans. […] Mortality is higher in the females and occurs around 25 weeks of age, renal disease includes glomerulonephritis, glomerular infiltrates, sclerosis and vasculitis. Both splenomegaly and lymphomegaly associated with dermatitis can also be observed.
MRL/lpr mice are first randomized, initial bleeds collected, and body weights recorded for baseline measurements (FIG. 1). All mice are individually ear tagged and are monitored throughout the entire experiment (e.g., “Group#-Cage letter-Mouse#”, so “3B5”=Group 3 (G3), cage B, mouse #5). Mice are age-matched and treatment started at 6-8 weeks of age. Cheek bleeds and urine collection continues weekly throughout the experiment. Mice are individually tracked for several parameters including cytokine and ANA levels, proteinuria, body mass, lymphomegaly, general health, and mortality. All parameters are evaluated bi-monthly except mortality which is monitored daily. All groups consist of a minimum of at least 10-12 mice per group. Ex vivo experiments include flow cytometry analyses for plasma cells, serum complement C3 and ANA levels; urine protein and leukocytes, serum cytokine profiling, renal histo pathology, and determination of compound levels (pharmacokinetics (PK)) in the spleen, kidney and plasma. Mice are tracked on an individual basis. For all data, mice are grouped into populations and data graphed as mean±SEM. End-stage readouts are analyzed as described in the MATERIALS AND METHODS section (above) and in FIG. 1.
Vehicle alone is provided orally twice weekly (p.o.). Both proteasome inhibitors are suspended in the vehicle solution. Bi-monthly bleeds and urine are collected and frozen at […] until assayed. End analyses include kidney histology, splenocyte B-cell Elispots, flow cytometry for B and T cell populations, PD markers, serum cytokines, antibody and complement levels. In addition, urine proteinuria is determined for all animals.
In group two (G2), COMPOUND A was administered at a dose of 3 mg/kg iv twice weekly. In group three (G3), COMPOUND A was administered at a dose of 10 mg/kg p.o. twice weekly. […] In the new group five (G5), bortezomib was administered at a dose of 0.3 mg/kg iv twice weekly. Dexamethasone was administered at a dose of 1.5 mg/kg/2d (M, W, F) ip. Vehicle was 3% DMSO/10% Solutol/87% PBS. In those instances in which mice could not be injected via the iv route, agents were administered ip as noted in Table 1.

[2] = tested on: NZM mice; assay: Collagen type-I cross-linker (CTx) bone resorption biomarker ELISA, serum of NZM mice; assay type: in vivo, mouse
Method: Assay is performed as instructed by the manufacturer. Briefly, biotinylated ratlaps antigen is first added in each well of a 96-well ELISA plate. This plate is covered and incubated for 30 minutes at RT. Plate is washed five times with washing solution and incubated with standards or unknown samples in appropriate wells followed by primary Ab. Incubate overnight for 18 hours at 4° C. followed by washing with buffer. Secondary incubation includes a peroxidase conjugated goat anti-rabbit IgG added to each well and incubation at RT for 1 hour. Incubation with chromogenic substrate solution for 15 minutes at RT in the dark develops the plate for analysis. Stopping solution halts the reaction, absorbance is measured within 2 hours at 450 nm.

[3] = tested on: MRL/lpr mice; assay: Renal histopathology scoring (kidney IC-GN), MRL/lpr mice; assay type: in vivo, mouse; settings: G6: 1.5 mg/kg ip, 3× wk
Method: For histological analyses, the left kidney from each animal is removed and fixed in 10% buffered neutral 10% formalin (EMD) for 48 hours on an orbital rocker at 25° C., then washed overnight with running dH2O and stored in 70% ethanol at 4° C. until ready to be processed. Kidney stains used for histological analyses included hematoxylin and eosin (H&E), Periodic Acid Schiff (PAS) and Trichrome stains (Wistar Institute, Philadelphia, Pa.). All 3 stained sections are used by the pathologist for scoring purposes. All histological scoring is performed blinded and by an independent board certified veterinary medical pathologist (Julie Engiles, VMD, DACVP). Multiple stains are used to determine score values. Images in FIG. 17 show worst affected area of section selected blindly by the pathologist.
Kidney IC-GN Scoring Method (Smith, Dong et al. 2007):
1. Glomerular cellularity—Score 1-5: Null, low, moderate, high, severe
2. Glomerular necrosis—Score 1-5: Null, low, moderate, high, severe
3. Glomerulosclerosis—Score 1-5: Null, low, moderate, high, severe
4. Interstitial infiltration—Score 1-5: Null, low, moderate, high, severe
5. Tubular atrophy—Score 1-5: Null, low, moderate, high, severe
6. Interstitial fibrosis—Score 1-5: Null, low, moderate, high, severe
7. Vasculitis—Score 1-5: Null, low, moderate, high, severe
Specific Pathologist Definitions: • Necrosis is defined by the presence of nuclear debris/pyknosis within the glomerular tuft indicative of “necrosis.” In many samples, this is a very mild, rare finding within only a very few segments of the glomerular tuft. Also consider effacement of the glomerular tuft by PAS positive, Trichrome negative material necrosis. • Glomerular sclerosis is defined by increased fibroplasia or fibrosis within the glomerular tuft or capsule. […] Most of the vascular changes are mild and could be considered “arteriosclerosis” characterized by proliferation of the smooth muscle cells, and hyalinization of the extracellular matrix. This change may reflect hypertension secondary to glomerular pathology. In very few animals is there overt “vasculitis.” Most inflammatory changes are within the walls of the blood vessels, with little to no damage to the endothelium, and no overt hemorrhage/fibrin leakage. Many also have perivascular rims of fibroblasts.

SMILES: C[C@@H]1C[C@H]2[C@@H]3CCC4=CC(=O)C=C[C@]4(C)[C@@]3(F)[C@@H](O)C[C@]2(C)[C@@]1(O)C(=O)CO [dexamethasone, Dexamethasone, reference compound]
- EOS survival, true EOS mouse percentage from starting population [1]: 83%
- Serum CTx linker AUC, percent change vs vehicle ([2]; G5 1.5 mg/kg ip, 3× wk): 21%
- p, serum concentration of collagen type I cross-linker vs G5 Bortezomib 0.3 mg/kg 1× wk ip ([2]; G8 1.5 mg/kg 3× wk ip): p < 0.05
- p, serum concentration of collagen type I cross-linker vs G6 Bortezomib 0.3 mg/kg 2× wk ip ([2]; G8 1.5 mg/kg 3× wk ip): p < 0.01
- EOS glomerular cellularity, percent change vs vehicle [3]: −15%
- EOS glomerular necrosis, percent change vs vehicle [3]: −25%
- EOS glomerulosclerosis, percent change vs vehicle [3]: −27%
- EOS interstitial infiltration, percent change vs vehicle [3]: −50%
- EOS vasculitis, percent change vs vehicle [3]: −18%
- Kidney EOS interstitial fibrosis, percent change vs vehicle [3]: −27%
- Kidney EOS tubular atrophy, percent change vs vehicle [3]: −23%
